Assay results: patent US10869931B2, “Polyethylene glycol-modified angiogenesis inhibitor HM-1 and application thereof” (NANJING ANJI BIOLOGICAL TECHNOLOGY CO.,LTD, priority 2016, dated 2020)
Marks after values point to notes of the source that are not given here. Where no end group is shown, it is not given here.

Experiments:
[1] = test system: Pancreatic cancer tumor cells; experiment: MTT proliferation inhibition, pancreatic cancer cells; type: cell-based, human; parameters: concentration or dose not given beside the values; details: 48 h
Method: (§1) The activity of mPEG-HM-1 to inhibit the growth of various tumor cells was examined by MTT assay. The tumor cells were cultured to a concentration of 90% or more in a 37° C., 5% CO2 incubator and collected by trypsinization. The cells were resuspended in the culture medium and counted under a microscope to adjust the cell concentration to 2×10^4 cells/mL, the cell suspension was inoculated into a 96-well plate at 100 μL/well and incubated overnight at 37° C. in a 5% CO2 incubator. mPEG-HM-1 was diluted with the culture solution to each predetermined concentration. Docetaxel is diluted to the final concentration with the culture medium. After the cells were fully attached, each dilution was added to a 96-well plate (100 μL/well). The mPEG-HM-1 dilution was added as a drug-administered group, and docetaxel was added as a positive control group, and a culture solution without any drug was used as a negative control group. Incubate for 48 h at 37° C. in a 5% CO2 incubator. 5 mg/mL of MTT was added to a 96-well plate at 20 μL per well, and incubation was continued for 4 hours. The medium was aspirated, dissolved in 150 μL of DMSO per well, and gently mixed by shaking for 10 min. The absorbance was measured at a measurement wavelength of 570 nm and a reference wavelength of 630 nm using a microplate reader, and the rate of growth inhibition (proliferation inhibition, PI) was calculated. The formula is as follows: PI (%)=1−administration group/negative group
(§2) The test was repeated 3 times independently, and the results obtained by the test were expressed as mean±SD, and the test results are shown in Table 15 to Table 18.

[2] = test system: Liver cancer tumor cells; experiment: MTT proliferation inhibition, liver cancer cells; type: cell-based, human; parameters: concentration or dose not given beside the values; details: 48 h
Method: as §1, §2

[3] = test system: Gastric cancer tumor cells; experiment: MTT proliferation inhibition, gastric cancer cells; type: cell-based, human; parameters: concentration or dose not given beside the values; details: 48 h
Method: as §1, §2

[4] = test system: Breast cancer tumor cells; experiment: MTT proliferation inhibition, breast cancer cells; type: cell-based, human; parameters: concentration or dose not given beside the values; details: 48 h
Method: as §1, §2

[5] = test system: Kidney cancer tumor cells; experiment: MTT proliferation inhibition, kidney cancer cells; type: cell-based, human; parameters: concentration or dose not given beside the values; details: 48 h
Method: as §1, §2

[6] = test system: Colorectal cancer tumor cells; experiment: MTT proliferation inhibition, colorectal cancer cells; type: cell-based, human; parameters: concentration or dose not given beside the values; details: 48 h
Method: as §1, §2

[7] = test system: Ovarian cancer tumor cells; experiment: MTT proliferation inhibition, ovarian cancer cells; type: cell-based, human; parameters: concentration or dose not given beside the values; details: 48 h
Method: as §1, §2

[8] = test system: xylene-induced ear swelling in Kunming mice; experiment: Xylene-induced ear swelling in mice; type: in vivo, mouse; details: for Inhibition rate: ear swelling vs control
Method: Kunming mice were used. The saline group was used as the blank control group, the aspirin group (200 mg/kg) as the positive control group, and the mPEG-HM-1 administration group as the experimental group. Mice were administered once daily for 5 consecutive days. The blank control group was given an equal volume of physiological saline. One hour after the last administration, 0.05 mL of xylene was applied to both sides of the right ear of the mice to cause inflammation, and the left ear was not coated as normal ears. After 2 h, the mice were sacrificed by dislocation, and the ears were cut along the auricle. Ear pieces were taken with a puncher, weighed, and the swelling degree and swelling rate were calculated. Swelling degree=right ear piece weight-left ear piece weight, swelling rate=(swelling degree/left ear piece weight)×100%. Statistical t-test was performed on the test results, *P<0.05 was a significant difference, and **P<0.01 was a very significant difference. See Table 31 to Table 34 for the results.

[9] = test system: carrageenan-induced toe swelling in SD rats; experiment: Carrageenan-induced acute toe swelling in rats; type: in vivo, rat; parameters: Swelling: unit not given here
Method: SD rats were divided into blank model group, dexamethasone-positive group (5 mg/kg) and mPEG-HM-1 test group. The drug was administered once a day, and the model group was given the same volume of normal saline for 3 days and fed normally. At the first hour after the last administration, 0.1 mL of 1% carrageenan was injected subcutaneously into the right hind paw of the rats to induce inflammation. The volume of the foot was measured at 1 h, 3 h, 5 h, and 7 h after inflammation. The degree of swelling of the foot was calculated according to the following formula: the degree of swelling of the foot (mL)=the volume of the foot after inflammation−the volume before inflammation. Record the number of milliliters of spilled liquid (method: use the ballpoint pen to circle as the measurement mark at the protruding point of the right joint, and then put the right hind foot of each mouse into the volume measuring device, so that the hind limb is exposed outside the cylinder, and the depth of the immersion was determined by coinciding the circle with the liquid surface. After the foot enters the liquid, the liquid level rises, and the volume of the overflow liquid is the volume of the right hind foot of the rat, and the normal volume of the right hind foot of each mouse is sequentially determined).

[10] = test system: human retinal vascular endothelial cells (HRCEC); experiment: MTT proliferation of human retinal vascular endothelial cells; type: cell-based; details: 48 h; for Inhibition rate: HRCEC proliferation; for A570 nm-A630 nm: HRCEC, MTT
Method: The activity of the angiogenesis inhibitor polypeptide to inhibit proliferation of human retinal vascular endothelial cells was examined by MTT assay. HRCEC cells were cultured in a 37° C., 5% CO2 incubator to a density of 90% or more, and collected by trypsinization. The cells were resuspended in the culture medium and counted under a microscope to adjust the cell concentration to 3.0×10^4 cells/mL. The cell suspension was inoculated into a 96-well plate at 100 μL per well and cultured overnight at 37° C. in a 5% CO2 incubator. After the cells were completely adhered, the angiogenesis inhibitor polypeptide was added as the administration group, and Avastin was used as the positive control group, and the culture media without any drug was used as a blank control group, and the culture media were diluted to each predetermined concentration. Each dilution was separately added to a 96-well plate at 100 μL per well and incubated for 48 h at 37° C. in a 5% CO2 incubator. 20 μL of 5 mg/mL MTT was added to each well of a 96-well plate and incubation was continued for 4 h. The medium was aspirated and dissolved in 100 μL of DMSO per well. […] The formula is as follows: PI (%)=1−administration group/negative group
The test was repeated 3 times independently. The results obtained by the test were expressed as mean±SD, and a statistical T test was performed. *P<0.05 was a significant difference, and **P<0.01 was a very significant difference.

[11] = 20 mg/kg once daily for 5 days, 2 h after xylene
[12] = 40 mg/kg once daily for 5 days, 2 h after xylene
[13] = 80 mg/kg once daily for 5 days, 2 h after xylene
[14] = 80 mg/kg once a day for 3 days, 1 h after carrageenan
[15] = 80 mg/kg once a day for 3 days, 3 h after carrageenan
[16] = 80 mg/kg once a day for 3 days, 5 h after carrageenan
[17] = 80 mg/kg once a day for 3 days, 7 h after carrageenan

Row | Substance | rate of growth inhibition [1] | rate of growth inhibition [2] | rate of growth inhibition [3] | rate of growth inhibition [4] | rate of growth inhibition [5] | rate of growth inhibition [6] | rate of growth inhibition [7] | Swelling [8, 11] | Inhibition rate ([8]; 20 mg/kg once daily for 5 days) | Swelling [8, 12] | Inhibition rate ([8]; 40 mg/kg once daily for 5 days) | Swelling [8, 13] | Inhibition rate ([8]; 80 mg/kg once daily for 5 days) | Swelling [9, 14] | Swelling [9, 15] | Swelling [9, 16] | Swelling [9, 17] | Inhibition rate ([10]; 60 μg/mL) | A570 nm-A630 nm ([10]; 60 μg/mL) | Inhibition rate ([10]; 80 μg/mL) | other results
1 | mPEG2-NHS20k-Arg-Gly-Ala-Asp-Arg-Ala-Gly-Gly-Gly-Gly-Arg-Gly-Asp ({mPEG2‑NHS 20 kDa}-RGADRAGGGGRGD) [mPEG2-NHS20k-HM-1] | 52.13 ± 13.32% | 55.03 ± 14.19% | 60.90 ± 20.14% | 52.68 ± 17.25% | 55.20 ± 15.43% | 58.16 ± 20.36% | 63.55 ± 19.60% | 5.52 ± 0.16 mg | 10.65% | 4.80 ± 0.29* mg | 22.37% | 3.96 ± 0.22** mg | 35.92% | 0.25 ± 0.11 | 0.32 ± 0.13 | 0.41 ± 0.11 | 0.34 ± 0.14 | 44.01%* | 0.7401 ± 0.07482 | 54.18%** | Swelling ([9]; 40 mg/kg once a day for 3 days, 1 h after carrageenan): 0.26 ± 0.15; Swelling ([9]; 40 mg/kg once a day for 3 days, 3 h after carrageenan): 0.34 ± 0.14; Swelling ([9]; 40 mg/kg once a day for 3 days, 5 h after carrageenan): 0.43 ± 0.17; Swelling ([9]; 40 mg/kg once a day for 3 days, 7 h after carrageenan): 0.36 ± 0.12; A570 nm-A630 nm ([10]; 80 μg/mL): 0.6056 ± 0.07003; Inhibition rate ([10]; 100 μg/mL): 64.62%*; A570 nm-A630 nm ([10]; 100 μg/mL): 0.4677 ± 0.07601
2 | mPEG2-NHS40k-Arg-Gly-Ala-Asp-Arg-Ala-Gly-Gly-Gly-Gly-Arg-Gly-Asp ({mPEG2‑NHS 40 kDa}-RGADRAGGGGRGD) [mPEG2-NHS40k-HM-1] | 51.49 ± 16.28% | 53.77 ± 13.64% | 56.39 ± 11.58% | 49.12 ± 16.19% | 58.73 ± 14.31% | 54.40 ± 18.29% | 61.59 ± 13.61% |  |  | 5.47 ± 0.12 mg | 11.52% | 4.83 ± 0.67* mg | 21.88% | 0.26 ± 0.12 | 0.32 ± 0.11 | 0.42 ± 0.14 | 0.35 ± 0.17 |  |  | 42.52%* | Swelling ([8]; 160 mg/kg once daily for 5 days, 2 h after xylene): 4.19 ± 0.34** mg; Inhibition rate ([8]; 160 mg/kg once daily for 5 days): 32.26%; Swelling ([9]; 160 mg/kg once a day for 3 days, 1 h after carrageenan): 0.27 ± 0.10; Swelling ([9]; 160 mg/kg once a day for 3 days, 3 h after carrageenan): 0.35 ± 0.18; Swelling ([9]; 160 mg/kg once a day for 3 days, 5 h after carrageenan): 0.41 ± 0.13; Swelling ([9]; 160 mg/kg once a day for 3 days, 7 h after carrageenan): 0.34 ± 0.19; A570 nm-A630 nm ([10]; 80 μg/mL): 0.7598 ± 0.07143; Inhibition rate ([10]; 100 μg/mL): 51.86%**; A570 nm-A630 nm ([10]; 100 μg/mL): 0.6363 ± 0.07532; Inhibition rate ([10]; 120 μg/mL): 62.78%*; A570 nm-A630 nm ([10]; 120 μg/mL): 0.4920 ± 0.07953
3 | mPEG-ALD5k-Arg-Gly-Ala-Asp-Arg-Ala-Gly-Gly-Gly-Gly-Arg-Gly-Asp ({mPEG‑ALD 5 kDa}-RGADRAGGGGRGD) [mPEG-ALD5k-HM-1] | 52.19 ± 12.64% | 52.98 ± 11.55% | 58.77 ± 15.49% | 49.22 ± 11.87% | 55.43 ± 14.04% | 57.30 ± 15.82% | 65.81 ± 20.42% | 4.16 ± 0.14** mg | 32.10% |  |  |  |  |  |  |  |  | 61.53%* | 05042 ± 0.08135 |  | Inhibition rate ([8]; 5 mg/kg once daily for 5 days): 10.17%; Swelling ([8]; 5 mg/kg once daily for 5 days, right minus left ear piece weight 2 h after xylene): 5.50 ± 0.21 mg; Swelling ([8]; 10 mg/kg once daily for 5 days, 2 h after xylene): 4.80 ± 0.35* mg; Inhibition rate ([8]; 10 mg/kg once daily for 5 days): 21.52%; Swelling ([9]; 10 mg/kg once a day for 3 days, 1 h after carrageenan): 0.22 ± 0.10; Swelling ([9]; 10 mg/kg once a day for 3 days, 3 h after carrageenan): 0.35 ± 0.13; Swelling ([9]; 10 mg/kg once a day for 3 days, 5 h after carrageenan): 0.41 ± 0.15; Swelling ([9]; 10 mg/kg once a day for 3 days, 7 h after carrageenan): 0.31 ± 0.12; Swelling ([9]; 20 mg/kg once a day for 3 days, 1 h after carrageenan): 0.21 ± 0.11; Swelling ([9]; 20 mg/kg once a day for 3 days, 3 h after carrageenan): 0.34 ± 0.19; Swelling ([9]; 20 mg/kg once a day for 3 days, 5 h after carrageenan): 0.37 ± 0.11; Swelling ([9]; 20 mg/kg once a day for 3 days, 7 h after carrageenan): 0.35 ± 0.13; Inhibition rate ([10]; 20 μg/mL): 42.02%*; A570 nm-A630 nm ([10]; 20 μg/mL): 0.7599 ± 0.08933; Inhibition rate ([10]; 40 μg/mL): 51.93%**; A570 nm-A630 nm ([10]; 40 μg/mL): 0.6301 ± 0.08011
